In patent US10787448B2, “Indolizino [3,2-C] quinoline-based fluorescent probe” (SEOUL NATIONAL UNIVERSITY R & DB FOUNDATION, priority 2015, dated 2020):
Values joined by “and” are separate entries in the source; they are usually repeats but may differ in a detail not shown here. Equal values may be shown once.

What was measured:
HeLa cells = test: Cell permeability: fluorescence imaging and live cell confocal imaging; format: cell-based; conditions: for intracellular organelles in which fluorescence is detected: HeLa cells; for co-localization with LysoTracker: live-cell confocal imaging, IQ 56 green, IQ 57 blue wavelength; for detection with yellow and red wavelength filters: live HeLa cells, ex 514 nm, em 519 nm and ex 561 nm, em 566 nm
Method: HeLa cells were seeded in a 96-well plate and incubated for 24 hours. The cells were treated with the indolizino[3,2-c]quinoline compounds, and incubated at 37° C. under a 5% CO2 condition for 30 minutes. After removal of the medium, the cells were washed with 1×DPBS. The washed cells were fixed with 4% formaldehyde at room temperature for 10 minutes, and washed with 1×DPBS. A cell image was screened using an Operetta HTS imaging system (PerkinElmer).
After HeLa cells were seeded to account for 70 to 80% of the area of a confocal dish (SPL life science) and overnight cultured, the indolizino[3,2-c]quinoline compounds (10 μM) prepared by mixing fresh DMEM after removal of the existing DMEM medium were dispensed, and the cells were incubated for 30 minutes to 1 hour at 37° C. Afterward, if needed, LysoTracker (50 nM) was mixed with DMEM to remove the existing medium and then dispensed to the cells, and the cells were incubated for 30 minutes at 37° C. After incubation, without washing, the cells were examined by a confocal laser microscope (Leica TCS SP8 SMD, Leica, Mannheim, Germany). However, when co-stained with a LysoTracker, the cells were washed with DPBS twice before the microscopy. […]

[1] = Analysis of optical characteristics (absorption, fluorescence emission, quantum yield) in solvents; format: physicochemical; conditions: for Fluorescence Emission Intensity / Peak emission wavelength λmax em(nm) / Relative fluorescence Emission Intensitynorm: H2O at 2 μM; for Peak emission wavelength λmax em(nm): excited at the longest absorption maxima; for Relative fluorescence Emission Intensitynorm: normalized fluorescence intensity; for Fluorescence quantum yield (Φ): Rhodamine 6G as a standard (Φ = 0.86 in water)
Method: Fluorescence emission spectra were obtained at 20° C. using a JASCO FP-6500 spectrofluorometer, a 10 mM stock solution prepared by dissolving an indolizino[3,2-c]quinoline compound in DMSO was diluted in a solvent. […] Absorption spectra were recorded at room temperature using a Perkin Elmer Lamda 20 UV/VIS spectrometer. […]
Further, the compounds (excluding Entry #51-57, etc.) of Formula 1 were subjected to spectrum analyses in various solvents, and the results are shown in Tables 6 and 7, and FIGS. 5C and 5D.

[2] = system: DNA oligomers (48 bp) tetO sequences; test: Binding to DNA by fluorescence spectrophotometer; conditions: hybridized tetO DNA oligomers added, 1 minute incubation
Method: Using a fluorescence spectrophotometer, it was confirmed whether the indolizino[3,2-c]quinoline compound of the present invention binds to DNA. First, DNA oligomers (48 bp) used in the experiment are tetO sequences, and the base sequences thereof are as follows.
The same molarities of oligomers were mixed while being heated at 95° C. for 5 minutes and cooled to room temperature for 2 hours to hybridize, the fluorescence of each of the indolizino[3,2-c]quinoline compounds of the present invention was measured, a corresponding equivalent of DNA oligomer was added to a cuvette, and then incubated while blocking light for 1 minute to measure fluorescence again.

Row | quantum yield (Φ) ([1]; DW, standard Rhodamine 6G) | quantum yield (Φ) ([1]; EtOH, standard Coumarin 153) | Fluorescence Emission Intensity [1] | Peak emission wavelength λmax em(nm) [1] [nm] | Relative fluorescence Emission Intensitynorm [1] | SMILES | further results
1 |  |  |  |  |  | COc1ccc(-c2nc3ccccc3c3cc4ccccn4c23)cc1CN1CCOCC1 [IQ 56, 4-(5-(indolizino[3,2-c]quinolin-6-yl)-2-methoxybenzyl)morpholine] | intracellular organelles in which fluorescence is detected (HeLa cells): intensively distributed in the lysosomal area; co-localization with LysoTracker (HeLa cells): co-localized with the commercially available marker LysoTracker
2 |  |  |  |  |  | CCOC(=O)c1c2c3ccccc3nc(-c3ccc(OC)c(CN4CCOCC4)c3)c2n2ccccc12 [IQ 57, ethyl 6-(4-methoxy-3-(morpholinomethyl)phenyl)indolizino[3,2-c]quinoline-12-carboxylate] | intracellular organelles in which fluorescence is detected (HeLa cells): intensively distributed in the lysosomal area; co-localization with LysoTracker (HeLa cells): co-localized with the commercially available marker LysoTracker
3 |  |  |  |  |  | COc1ccc(-c2ccn3c(c2)cc2c4ccccc4nc(-c4ccc(OC)cc4)c23)cc1 [IQ-B26, 6,10-bis(4-methoxyphenyl)indolizino[3,2-c]quinoline] | detection with yellow and red wavelength filters (HeLa cells): detected
4 |  |  |  |  |  | COc1ccc(-c2nc3ccccc3c3cc4cc(-c5ccc(/C=C/C=O)cc5)ccn4c23)cc1 [IQ-B31, (E)-3-(4-(6-(4-methoxyphenyl)indolizino[3,2-c]quinolin-10-yl)phenyl)acrylaldehyde] | λex(nm) ([1]; Table 7): 440 nm; detection with yellow and red wavelength filters (HeLa cells): detected
5 |  |  |  |  |  | COc1ccc(-c2nc3ccccc3c3cc4cc(-c5ccc(N(C)C)cc5)ccn4c23)cc1 [IQ-B37, 4-(6-(4-methoxyphenyl)indolizino[3,2-c]quinolin-10-yl)-N,N-dimethylaniline] | λex(nm) ([1]; Table 7): 432 nm; detection with yellow and red wavelength filters (HeLa cells): detected
6 | 0.065 | 0.604 | 31.7 | 524.5 | 0.14 | COc1ccc(-c2nc3ccccc3c3cc4c(C)cccn4c23)cc1OC [compound 17] | Maximum absorption wavelength λmax abs(nm) [1]: 391 nm; shift of maximum emission wavelength on addition of DNA oligomer [2]: wavelength to longer wavelength
7 | 0.008 | 0.421 | 15.0 | 523.5 | 0.06 | Cc1cccn2c1cc1c3ccccc3nc(-c3ccco3)c12 [compound 18] | Maximum absorption wavelength λmax abs(nm) [1]: 400 nm; shift of maximum emission wavelength on addition of DNA oligomer [2]: wavelength to shorter wavelength
8 | 0.060 | 0.222 | 80.5 | 478 | 0.35 | COC(=O)c1c2c3ccccc3nc(-c3cc(OC)cc(OC)c3)c2n2ccccc12 [compound 19] | shift of maximum emission wavelength on addition of DNA oligomer [2]: wavelength to shorter wavelength
9 | 0.070 | 0.440 | 89.5 | 512 | 0.38 | COc1ccc(-c2nc3ccccc3c3cc4ccc(Br)cn4c23)cc1 [compound 22] | 
10 | 0.065 | 0.106 | 82.4 | 518 | 0.35 | Cc1ccc(-c2nc3ccccc3c3cc4ccc(Br)cn4c23)cc1 [compound 23] | 
11 | 0.030 | 0.063 | 75.1 | 513 | 0.32 | COc1ccc(-c2nc3ccccc3c3cc4ccc(Br)cn4c23)cc1OC [compound 24] | 
12 | 0.009 | 0.031 | 13.4 | 505.5 | 0.06 | Brc1ccc2cc3c4ccccc4nc(-c4ccco4)c3n2c1 [compound 25] | 
13 | 0.000 | 0.000 |  |  | 0.00 | CCOC(=O)c1c2c3ccccc3nc(-c3ccc([N+](=O)[O-])cc3)c2n2ccccc12 [compound 26] | Maximum absorption wavelength λmax abs(nm) [1]: 384 nm
14 | 0.073 | 0.318 | 98.9 | 474 | 0.42 | CCOC(=O)c1c2c3ccccc3nc(-c3cccc(Cl)c3)c2n2ccccc12 [compound 27] | 
15 |  |  | 211.7 | 476 | 0.91 | CCOC(=O)c1c2c3ccccc3nc(-c3cccc(F)c3)c2n2ccccc12 [compound 28] | Absorption coefficient (cm^−1M^−1) [1]: 10780 cm^−1M^−1; Absorption wavelength λex(nm) [1]: 369 nm; Emission wavelength λem(nm) [1]: 476 nm; λem (nm) ([1]; DMF): 470 nm; λem (nm) ([1]; DMSO): 472.5 nm; λem (nm) ([1]; EtOH): 449.5 nm; λem (nm) ([1]; EtOH:CHCl3 = 1:5): 450 nm; λem (nm) ([1]; H2O): 476 nm; λem (nm) ([1]; MC): 451.5 nm; Fluorescence quantum yield (Φ) [1]: 0.061
16 | 0.120 | 0.365 | 186.2 | 482 | 0.80 | CCOC(=O)c1c2c3ccccc3nc(-c3cccc(OC)c3)c2n2ccccc12 [compound 29] | 
17 |  |  | 210.7 | 480.5 | 0.90 | CCOC(=O)c1c2c3ccccc3nc(-c3ccc(OC)c(OC)c3)c2n2ccccc12 [compound 30] | Absorption coefficient (cm^−1M^−1) [1]: 10580 cm^−1M^−1; Absorption wavelength λex(nm) [1]: 369 nm; Emission wavelength λem(nm) [1]: 481 nm; λem (nm) ([1]; DMF): 450 nm; λem (nm) ([1]; DMSO): 452.5 nm; λem (nm) ([1]; EtOH): 444 nm; λem (nm) ([1]; EtOH:CHCl3 = 1:5): 447.5 nm; λem (nm) ([1]; H2O): 478.5 nm; λem (nm) ([1]; MC): 448 nm; Fluorescence quantum yield (Φ) [1]: 0.084

Row | quantum yield (Φ) ([1]; DW, standard Rhodamine 6G) | quantum yield (Φ) ([1]; EtOH, standard Coumarin 153) | Fluorescence Emission Intensity [1] | Peak emission wavelength λmax em(nm) [1] [nm] | Relative fluorescence Emission Intensitynorm [1] | SMILES | further results
18 | 0.082 | 0.277 |  |  |  | Cc1cccn2c1cc1c3ccccc3nc(-c3cccc4ccccc34)c12 [compound 33] | 
19 | 0.073 | 0.365 |  |  |  | Cc1ccc2cc3c4ccccc4nc(-c4cccc5ccccc45)c3n2c1 [compound 35] | 
20 | 0.006 | 0.386 |  |  |  | CN(C)c1ccc(-c2nc3ccccc3c3cc4ccccn4c23)cc1 [compound 36] | shift of maximum emission wavelength on addition of DNA oligomer [2]: wavelength to longer wavelength
21 | 0.026 | 0.492 |  |  |  | COc1ccc(-c2nc3ccccc3c3c(C#N)c4ccccn4c23)cc1 [compound 39] | 
22 |  |  |  |  |  | c1csc(-c2nc3ccccc3c3cc4ccccn4c23)c1 [compound 42] | shift of maximum emission wavelength on addition of DNA oligomer [2]: wavelength to shorter wavelength
23 | 0.014 | 0.275 |  |  |  | COC(=O)c1c2c3ccccc3nc(-c3ccccn3)c2n2ccccc12 [compound 43] | 
24 | 0.050 | 0.597 |  |  |  | COc1ccc(-c2nc3ccccc3c3c(-c4ccc(C(F)(F)F)cc4)c4ccccn4c23)cc1 [compound 47] | 
25 | 0.105 | 0.050 |  |  |  | COc1ccc(-c2nc3ccccc3c3c(-c4ccc(C(C)=O)cc4)c4ccccn4c23)cc1 [compound 48] | 
26 | 0.085 | 0.195 |  |  |  | COc1ccc(-c2nc3ccccc3c3c(Br)c4ccccn4c23)cc1 [compound 49] | 
27 | 0.014 | 0.037 |  |  |  | COc1ccc(-c2nc3ccccc3c3c(I)c4ccccn4c23)cc1 [compound 50] | 
28 |  |  |  |  |  | CCOC(=O)c1c2c3ccccc3nc(-c3ccc(OC)cc3)c2n2ccccc12 [compound 51] | λex(nm) ([1]; Table 6): 403 nm
29 |  |  |  |  |  | Cc1cccn2c1cc1c3ccccc3nc(-c3cccs3)c12 [compound 52] | λex(nm) ([1]; Table 6): 399 nm
30 |  |  |  |  |  | Cc1cccn2c1cc1c3ccccc3nc(-c3ccc(Cl)o3)c12 [compound 53] | λex(nm) ([1]; Table 6): 422 nm
31 |  |  |  |  |  | C#Cc1c2c3ccccc3nc(-c3ccc(OC)cc3)c2n2ccccc12 [compound 55] | λex(nm) ([1]; Table 6): 413 nm
32 |  |  |  |  |  | COc1ccc(-c2nc3ccccc3c3cc4ccccn4c23)cc1CN1CCOCC1 [compound 56] | λex(nm) ([1]; Table 6): 450 nm and 422 nm
33 |  |  |  |  |  | CCOC(=O)c1c2c3ccccc3nc(-c3ccc(OC)c(CN4CCOCC4)c3)c2n2ccccc12 [compound 57] | λex(nm) ([1]; Table 6): 401 nm
